The target in assay [1] is Xenopus IRBP Module 1 (Xenopus laevis, UniProt Q7SZI7). The assay can be described thus: Fluorometric titration (enhancement, quenching). The assay is classed as binding. The arrangement: cDNAs corresponding to the full-length IRBP, module 1, and module 2 were expressed in pThioHis; modules 3 and 4 were expressed in pTrxFus; made in house; host or cells: E. coli Top10 (pThioHis). An excerpt:
(§1) Enhancement of retinol fluorescence and quenching of the intrinsic protein fluorescence were used to monitor binding of all-trans retinol to the recombinant IRBPs. We previously derived an equation that is generally useful for describing such quantum yield changes that are consequent upon ligand binding. This equation has been previously applied to the analysis of binding by monitoring the enhancement of retinol fluorescence. In this case, where excitation is at 330 nm and emission is monitored at 480, the fluorescence enhancement (Fenh) depends on the total retinol concentration (Rt), the dissociation constant (Kd ^all-trans), the number of retinol-binding sites per protein molecule (N) and the total protein concentration (Pt).
(§2) Assuming that there is a single type of noninteracting site on the protein, (Fenh) is expected to be linearly related to the concentration of bound retinol molecules. Fenh is given by the relation
(§3) Fenh=C1+C2[Rtall−trans−(Rtall−trans+NPt+Kdall−trans)^2−4NPtRtall−trans] MathType@MTEF@5@5@+=feaafiart1ev1aaatCvAUfKttLearuWrP9MDH5MBPbIqV92AaeXatLxBI9gBaebbnrfifHhDYfgasaacH8akY=wiFfYdH8Gipec8Eeeu0xXdbba9frFj0=OqFfea0dXdd9vqai=hGuQ8kuc9pgc9s8qqaq=dirpe0xb9q8qiLsFr0=vr0=vr0dc8meaabaqaciaacaGaaeqabaqabeGadaaakeaacqWGgbGrdaWgaaWcbaGaemyzauMaemOBa4MaemiAaGgabeaakiabg2da9iabdoeadnaaBaaaleaacqaIXaqmaeqaaOGaey4kaSIaem4qam0aaSbaaSqaaiabikdaYaqabaGcdaWadaqaaiabdkfasnaaDaaaleaacqWG0baDaeaacqWGHbqycqWGSbaBcqWGSbaBcqGHsislcqWG0baDcqWGYbGCcqWGHbqycqWGUbGBcqWGZbWCaaGccqGHsisldaGcaaqaamaabmaabaGaemOuai1aa0baaSqaaiabdsha0bqaaiabdggaHjabdYgaSjabdYgaSjabgkHiTiabdsha0jabdkhaYjabdggaHjabd6gaUjabdohaZbaakiabgUcaRiabd6eaojabdcfaqnaaBaaaleaacqWG0baDaeqaaOGaey4kaSIaem4saS0aa0baaSqaaiabdsgaKbqaaiabdggaHjabdYgaSjabdYgaSjabgkHiTiabdsha0jabdkhaYjabdggaHjabd6gaUjabdohaZbaaaOGaayjkaiaawMcaamaaCaaaleqabaGaeGOmaidaaOGaeyOeI0IaeGinaqJaemOta4Kaemiuaa1aaSbaaSqaaiabdsha0bqabaGccqWGsbGudaqhaaWcbaGaemiDaqhabaGaemyyaeMaemiBaWMaemiBaWMaeyOeI0IaemiDaqNaemOCaiNaemyyaeMaemOBa4Maem4CamhaaaqabaaakiaawUfacaGLDbaaaaa@8490@
(§4) The equation was fit to the data by nonlinear least-squares analysis. To follow the quenching of the protein's intrinsic fluorescence the excitation and emission wavelengths were set to 280 nm and 340 nm, respectively, while the protein was titrated with all-trans retinol. For the quenching studies the inner filter effect was accounted for by graphical correction as previously described. Fluorescence measurements were made using an SLM 8000TM C photon counting spectrofluorometer corrected for wavelength dependence of source energy and detector response.

Assay [2] concerns the target T1, Xenopus IRBP Module 2 (Xenopus laevis, UniProt Q7SZI7).
T1 construct: cDNAs corresponding to the full-length IRBP, module 1, and module 2 were expressed in pThioHis; modules 3 and 4 were expressed in pTrxFus; made in house; host or cells: E. coli Top10 (pThioHis)
T1 sequence (Q7SZI7 319-617 limits assumed): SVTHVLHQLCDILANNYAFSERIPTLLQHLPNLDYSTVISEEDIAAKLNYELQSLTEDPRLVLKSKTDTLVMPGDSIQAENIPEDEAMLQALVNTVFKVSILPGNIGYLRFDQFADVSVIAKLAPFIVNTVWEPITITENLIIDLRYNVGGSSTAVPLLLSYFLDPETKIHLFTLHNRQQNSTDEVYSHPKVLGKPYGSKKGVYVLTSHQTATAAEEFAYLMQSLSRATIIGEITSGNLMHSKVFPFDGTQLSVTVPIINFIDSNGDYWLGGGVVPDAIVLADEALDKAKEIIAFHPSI
Set-up: method as in Loew et al. Exp Eye Res. 2001, 73:257–264. Particulars: ref Loew et al. Exp Eye Res. 2001, 73:257–264, cited from earlier work.

Assay [3] concerns the target T2, full-length Xenopus IRBP (Xenopus laevis, UniProt Q7SZI7).
T2 construct: We expressed the full-length IRBP as well as its individual modules as thioredoxin-fusion proteins using pTrxFus and pThioHis vectors; made in house; host or cells: E. coli Top10 (pThioHis)
The assay is described as follows: Fluorometric titration (ligand fluorescence enhancement, protein quenching, energy transfer). The assay is classed as binding.
Excerpt: The binding parameters of retinoid-binding proteins including IRBP may be determined by fluorescence spectroscopy. The method utilizes changes in quantum yield occurring during ligand binding. Such changes are represented by enhancement of ligand fluorescence, quenching of intrinsic protein fluorescence, and transfer of energy from protein to bound ligand. Fluorescence enhancement occurs if the quantum yield of the ligand's fluorescence is higher in the hydrophobic environment of the ligand-binding domain compared to that outside of the domain.
[…] We previously derived an equation that is generally useful for describing such quantum yield changes that are consequent upon ligand binding. This equation has been previously applied to the analysis of binding by monitoring the enhancement of retinol fluorescence. In this case, […], the fluorescence enhancement (Fenh) depends on the total retinol concentration (Rt), the dissociation constant (Kd ^all-trans), the number of retinol-binding sites per protein molecule (N) and the total protein concentration (Pt).
as §2, §3
The equation was fit to the data by nonlinear least-squares analysis. […] For the quenching studies the inner filter effect was accounted for by graphical correction as previously described. Fluorescence measurements were made using an SLM 8000TM C photon counting spectrofluorometer corrected for wavelength dependence of source energy and detector response.

For assay [4], the target named is T3, Xenopus IRBP Module 3 (Xenopus laevis, UniProt Q7SZI7).
T3 construct: cDNAs corresponding to the full-length IRBP, module 1, and module 2 were expressed in pThioHis; modules 3 and 4 were expressed in pTrxFus; made in house; host or cells: E. coli GI724 / GI698 (pTrxFus)
T3 sequence (Q7SZI7 616-922): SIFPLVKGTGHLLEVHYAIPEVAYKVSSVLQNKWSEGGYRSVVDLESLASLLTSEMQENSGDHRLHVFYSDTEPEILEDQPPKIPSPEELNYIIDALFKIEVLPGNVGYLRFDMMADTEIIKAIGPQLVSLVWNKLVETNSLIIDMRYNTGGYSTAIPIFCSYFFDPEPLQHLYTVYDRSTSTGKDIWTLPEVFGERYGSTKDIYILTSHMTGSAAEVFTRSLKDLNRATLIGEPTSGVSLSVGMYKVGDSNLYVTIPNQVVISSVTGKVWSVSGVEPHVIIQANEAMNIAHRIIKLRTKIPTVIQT
The assay is described as follows: Fluorometric titration (enhancement, quenching). Format: binding.
Excerpt: as §1, §2, §3, §4

Assay [5] deals with T4, Xenopus IRBP Module 4 (Xenopus laevis, UniProt Q7SZI7).
T4 construct: cDNAs corresponding to the full-length IRBP, module 1, and module 2 were expressed in pThioHis; modules 3 and 4 were expressed in pTrxFus; made in house; host or cells: E. coli GI724 / GI698 (pTrxFus)
T4 sequence (Q7SZI7 923-1219): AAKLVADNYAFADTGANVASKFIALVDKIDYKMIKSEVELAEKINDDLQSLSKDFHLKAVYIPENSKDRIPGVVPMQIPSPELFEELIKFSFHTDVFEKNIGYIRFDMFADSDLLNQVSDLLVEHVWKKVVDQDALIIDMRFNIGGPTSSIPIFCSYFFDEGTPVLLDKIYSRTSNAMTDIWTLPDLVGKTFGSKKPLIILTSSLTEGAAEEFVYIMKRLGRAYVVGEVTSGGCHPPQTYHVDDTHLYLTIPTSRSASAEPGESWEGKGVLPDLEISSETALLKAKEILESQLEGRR
The assay is described as follows: Fluorometric titration (enhancement, quenching). Format: binding.
Excerpt: as §1, §2, §3, §4

Setting [6] is: 9-AS fluorescence enhancement, ex 360 nm, em 440 nm.
[7] abbreviates: 9-AS fluorescence enhancement, ex 360 nm, em 440 nm, read-out: Kd, Enhancement.
The mark [8] stands for this setting: quenching by 9-AS, ex 280 nm, em 340 nm.
Where [9] appears, read: quenching by 9-AS, ex 280 nm, em 340 nm, read-out: Kd, Quenching.

The values below come from paper PMC2000878, “Module structure of interphotoreceptor retinoid-binding protein (IRBP) may provide bases for its complex role in the visual cycle – structure/function study of Xenopus IRBP” (BMC Biochemistry, 2007).

Where two headings read alike, the source gives them in different places.

As a reminder, the Kd is a measure of binding affinity in units of concentration.

T2 sequence (Q7SZI7 23-1219): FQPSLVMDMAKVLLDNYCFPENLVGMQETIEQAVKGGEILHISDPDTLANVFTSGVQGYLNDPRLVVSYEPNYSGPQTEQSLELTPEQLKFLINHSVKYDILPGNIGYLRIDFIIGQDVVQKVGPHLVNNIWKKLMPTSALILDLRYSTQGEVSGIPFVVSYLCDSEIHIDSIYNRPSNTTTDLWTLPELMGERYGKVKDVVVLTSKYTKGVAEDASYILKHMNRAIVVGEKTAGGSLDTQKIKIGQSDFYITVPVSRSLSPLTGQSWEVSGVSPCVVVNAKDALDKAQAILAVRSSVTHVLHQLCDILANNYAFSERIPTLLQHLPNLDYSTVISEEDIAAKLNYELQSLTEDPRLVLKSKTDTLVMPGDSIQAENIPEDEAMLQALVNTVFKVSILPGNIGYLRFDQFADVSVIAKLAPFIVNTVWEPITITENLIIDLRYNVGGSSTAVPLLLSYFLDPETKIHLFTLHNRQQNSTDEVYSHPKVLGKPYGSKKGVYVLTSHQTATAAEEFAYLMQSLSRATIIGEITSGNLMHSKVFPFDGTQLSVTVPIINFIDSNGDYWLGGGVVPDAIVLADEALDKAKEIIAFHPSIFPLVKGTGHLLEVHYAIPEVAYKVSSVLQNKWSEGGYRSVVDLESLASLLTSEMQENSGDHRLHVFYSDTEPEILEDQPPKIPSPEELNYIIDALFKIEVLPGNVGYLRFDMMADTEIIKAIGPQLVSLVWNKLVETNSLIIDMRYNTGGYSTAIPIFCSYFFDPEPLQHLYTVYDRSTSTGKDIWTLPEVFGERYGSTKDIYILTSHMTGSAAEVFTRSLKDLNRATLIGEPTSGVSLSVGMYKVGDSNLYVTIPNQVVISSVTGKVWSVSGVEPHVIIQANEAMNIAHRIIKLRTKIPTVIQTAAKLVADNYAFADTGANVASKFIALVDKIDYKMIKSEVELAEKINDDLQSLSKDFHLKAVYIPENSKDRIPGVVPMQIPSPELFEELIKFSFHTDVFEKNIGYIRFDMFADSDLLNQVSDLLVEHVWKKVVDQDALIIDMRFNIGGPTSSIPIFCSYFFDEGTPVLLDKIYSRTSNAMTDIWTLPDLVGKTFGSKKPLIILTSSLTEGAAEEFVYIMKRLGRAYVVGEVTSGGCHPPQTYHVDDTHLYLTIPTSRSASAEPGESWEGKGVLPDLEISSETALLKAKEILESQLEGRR
Xenopus IRBP Module 1, sequence (Q7SZI7 23-315): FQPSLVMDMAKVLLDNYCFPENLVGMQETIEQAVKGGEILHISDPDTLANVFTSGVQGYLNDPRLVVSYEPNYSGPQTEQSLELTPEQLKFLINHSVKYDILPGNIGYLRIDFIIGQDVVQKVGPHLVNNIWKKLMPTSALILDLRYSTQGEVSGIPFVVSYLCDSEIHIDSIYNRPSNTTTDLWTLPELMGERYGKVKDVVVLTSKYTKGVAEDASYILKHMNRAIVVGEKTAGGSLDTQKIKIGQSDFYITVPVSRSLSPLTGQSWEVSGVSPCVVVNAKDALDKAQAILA

In the case of `CCCCCCCCCC(CCCCCCCC(=O)O)OC(=O)c1c2ccccc2cc2ccccc12` (centres unmarked) [9-AS, 9-(9-anthroyloxy) stearic acid], the “Binding sites (N), Enhancement” value was 2.55 ± 0.24 in assay [1] (setting [6]); 1.49 ± 0.15 in assay [2] (setting [6]); 2.58 ± 0.17 in assay [3] (setting [6]); 2.76 ± 0.09 in assay [4] (setting [6]); 2.23 ± 0.09 in assay [5] (setting [6]). Besides, the Kd in assay [1] (setting [7]) was 330 ± 150 nM; in assay [1] (setting [9]), 420 ± 100 nM; in assay [2] (setting [7]) it was 250 ± 80 nM; in assay [2] (setting [9]), 130 ± 20 nM; in assay [3] (setting [7]), 280 ± 70 nM; in assay [3] (quenching of protein fluorescence by 9-AS, ex 280 nm, em 340 nm, read-out: Kd, Quenching) it was 290 ± 110 nM. Also, the Kd turned out to be 160 ± 410 nM in assay [4] (setting [7]), 190 ± 30 nM in assay [4] (setting [9]), 82 ± 37 nM in assay [5] (setting [7]) and 160 ± 40 nM in assay [5] (setting [9]). The “Binding sites (N), Quenching” value in assay [1] (setting [8]) is 0.97 ± 0.19; in assay [2] (setting [8]), 0.93 ± 0.06; in assay [3] (quenching of protein fluorescence by 9-AS, ex 280 nm, em 340 nm) it was 0.18 ± 0.29; in assay [4] (setting [8]), 1.06 ± 0.07; in assay [5] (setting [8]) it was 0.30 ± 0.09.
